From patent US6720324B2, “Selective melanin concentrating hormone-1 (MCH1) receptor antagonists and uses thereof” (Synaptic Pharmaceutical Corporation, priority 2000, dated 2004)
Where a name gives a salt, the structure may show the parent alone. Read-outs that look alike come from different tables or passages of the source.

Columns and labels:
[1] = target: human MCH1 receptor (Homo sapiens, UniProt Q99705); assay: Functional assay: intracellular calcium mobilization (antagonist potency Kb); type: cell-based; design: expressed in transfected cells; host or cells: COS-7 cells, transient, DEAE-dextran, plasmid pEXJ.HR-TL231 (ATCC 203197)
Description: Intracellular calcium mobilization assays for the MCH1 receptor were carried out using plasmid pEXJ.HR-TL231 (ATCC Accession No. 203197). COS-7 cells were transiently transfected with DNA encoding the MCH1 receptor utilizing the DEAE-dextran method as described above. The intracellular free calcium concentration was measured by fluorescent imaging using the calcium sensitive fluorscent dye Fluo-3. COS-7 cells expressing the human MCH1 receptor were seeded onto sterile 96 well plates, washed with Hank's balanced salt solution (HBSS), containing 20 mM HEPES, 2.5 mM probenecid, and 0.1% BSA, and loaded with the same buffer containing 3.8 μM Fluo-3 for 1 hour at 37° C. After washing with HBSS to remove the fluo-3 solution, cells were equilibrated for 10 minutes.

[2] = Table 1, cloned human MCH1 receptor, functional assay, read-out: Kb (nM) hMCH1
[3] = Table 2, antagonist potency at the human MCH1 receptor, read-out: hMCH1 Kb
[4] = Table 3, antagonist potency at the human MCH1 receptor, read-out: hMCH1 Kb
[5] = read-out: hMCH1 Kb, Table 3, antagonist potency at the human MCH1 receptor

Sequence of human MCH1 receptor (Q99705 whole entry): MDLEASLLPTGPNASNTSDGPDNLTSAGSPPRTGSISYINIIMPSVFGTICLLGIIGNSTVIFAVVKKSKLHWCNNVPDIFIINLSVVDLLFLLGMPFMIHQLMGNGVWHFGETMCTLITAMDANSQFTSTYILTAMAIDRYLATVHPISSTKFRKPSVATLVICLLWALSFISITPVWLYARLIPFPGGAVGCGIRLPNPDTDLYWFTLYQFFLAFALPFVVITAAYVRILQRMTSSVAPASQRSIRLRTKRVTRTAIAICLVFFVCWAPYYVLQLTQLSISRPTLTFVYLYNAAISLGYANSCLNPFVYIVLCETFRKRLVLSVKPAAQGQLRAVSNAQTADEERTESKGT

Molecule	Kb [1, 2] [nM]	melting point [°C]	also measured
COC(=O)C1=C(C)NC(=O)N(C(=O)NCCCN2CCC3(CCc4ccccc43)CC2)C1c1ccc2nonc2c1 (racemic) [Example 21]	28		
CCCCN(CCCC)c1ccc(CNC[C@H]2CC[C@H](NC(=O)c3cccc4ccccc34)CC2)cc1 [Example 13, N1-[4-([4-(DIBUTYLAMINO)BENZYL]AMINOMETHYL)CYCLOHEXYL]-1-NAPHTH-AMIDE]	284		Kb [1, 3]: 284 nM; Kb [1, 4]: 284 nM
COC(=O)C1=C(C)NC(=O)N(C(=O)NCCCN2CCN(c3ccccc3C)CC2)C1c1ccc(F)c(F)c1 (stereo not drawn) (as salt: hydrochloride) [Example 35, 1,2,3,6-TETRAHYDRO-1{N-[4-(2′-METHYL-PHENYL)PIPERAZIN-1-YL]-PROPYL}-CARBOXAMIDO-4-METHYL-6-(3,4-DIFLUOROPHENYL)-2-OXO-PYRIMIDINE]		66 to 71	
O=C(NC1CCN(CCC2CCc3ccccc3C2=O)CC1)c1ccccc1 (stereo not drawn) [Example 5]	258	158 to 159	
CN1CN(c2ccccc2)C2(CCN(CCCC(=O)c3ccc(F)cc3)CC2)C1=O [Example 30, N-METHYL-8-[4-(4-FLUOROPHENYL)-4-OXOBUTYL]-1-PHENYL-1,3,8-TRI-AZASPIRO-[4.5]DECAN-4-ONE]	479		Kb [1, 3]: 479 nM
COC(=O)C1=C(C)NC(=O)N(C(=O)NCCCN2CCC3(CC2)OCc2ccccc23)C1c1ccc2nonc2c1 (single isomer, unassigned) (as salt: hydrochloride) [Example 18]		180 to 182	
COC(=O)C1=C(C)NC(=O)N(C(=O)NCCCN2CCN(c3ccccc3C)CC2)C1c1ccc(F)c(F)c1 (stereo not drawn) [Example 35, 1,2,3,6-TETRAHYDRO-1{N-[4-(2′-METHYL-PHENYL)PIPERAZIN-1-YL]-PROPYL}-CARBOXAMIDO-4-METHYL-6-(3,4-DIFLUOROPHENYL)-2-OXO-PYRIMIDINE]	276		
Fc1ccc(C(c2ccc(F)cc2)N2CCN(C/C=C/c3ccccc3)CC2)cc1 [Example 26, 1-[BIS(4-FLUOROPHENYL)METHYL]-4-(3-PHENYL-2-PROPENYL)PIPERAZINE]	260		Kb [1, 3]: 260 nM
COCC1=C(C(=O)OC)C(c2ccc(F)c(F)c2)N(C(=O)NCCCN2CCC(c3cccc4ccccc34)CC2)C(=O)N1 (single isomer, unassigned; (+)) [Example 14, (+)-1,2,3,6-TETRAHYDRO-1-{N-[4-(1-NAPHTHYL)-PIPERIDIN-1-YL]PROP-YL}CARBOXAMIDO-4-METHOXYMETHYL-6-(3,4-DIFLUOROPHENYL)-2-OXO-PYRIMIDINE-5-CARBOXYLIC ACID METHYL ESTER]		168 to 172	
O=C(CCCN1CCC(NC(=O)c2ccccc2)CC1)c1ccc(Cl)cc1 (as salt: HCl) [Example 28, 1-[3-(4-CHLOROBENZOYL)]PROPYL-4-BENZAMIDOPIPERIDINE]		243 to 244	
COC(=O)C1=C(C)NC(=O)N(C(=O)NCCCN2CCC3(CC2)OCc2ccccc23)C1c1ccc(F)c(F)c1 (stereo not drawn) (as salt: hydrochloride) [Example 20, 4-(3,4-DIFLUORPHENYL)-6-METHYL-2-OXO-3-{[3-(4-SPIRO[ISOBENZO-FURAN-1(3H),4′-PIPERIDINE]PROPYL}-1,2,3,4-TETRAHYDROPYRIMIDINE-5-CARBOXYLIC ACID METHYL ESTER]		178 to 182	
COC(=O)C1=C(C)NC(=O)N(C(=O)NCCCN2CCC(c3ccccc3)CC2)C1c1ccc(F)c(F)c1 (stereo not drawn) [Example 11, 6-(3,4-DIFLOUROPHENYL)-1,2,3,6-TETRAHYDRO-5-METHOXYCARBONYL-4-METHYL-2-OXO-1-{N-[3-(4-PHENYLPIPERIDIN-1-YL) PROPYL]}CARBOXAMIDO-PYRIMIDINE]	331		
CCCCN(CCCC)c1ccc(CN2CCC(CNC(=O)N3C(=O)NC(C)=C(C(=O)OC)C3c3ccc4nonc4c3)CC2)cc1 (stereo not drawn) [Example 6]	42		Kb [1, 3]: 42 nM; Kb [1, 4]: 42 nM
(1)-1,2,3,6-TETRAHYDRO-1-{N-[4-(3,4-DIHYDRO-2-OXOSPIRONAPHTHALENE-1(2H))-PIPERIDINE-1-YL]PROPYL}CARBOXAMIDO-5-METHOXY-CARBONYL-2-OXO-6-(3,4-DIFLUOROPHENYL)-4-METHYL-PYRIMIDINE [Example 24]	102		
COC(=O)C1=C(C)NC(=O)N(C(=O)NCCCN2CCC(c3ccccc3)CC2)C1c1ccc2nonc2c1 (stereo not drawn) [Example 8, 6-(BENZOFURAZAN-5-YL)-1,2,3,6-TETRAHYDRO-5-METHOXYCARBONYL-4-METHYL-2-OXO-1-{N-[3-(4-PHENYLPIPERIDIN-1-YL)PROPYL]}CARBOXAMIDO-PYRIMIDINE]	88		
COC(=O)C1=C(C)NC(=O)N(C(=O)NCCCN2CCC3(CCc4ccccc43)CC2)C1c1ccc(F)c(F)c1 (stereo not drawn) [Example 32, (1)-1,2,3,6-TETRAHYDRO-1-{N-[4-(DIHYDROINDENE)-1-YL}PROPYL}-CARBOXAMIDO-5-METHOXYCARBONYL-2-OXO-6-(3,4-DIFLUORO)-4-METHYL-PYRIMIDINE]		150 to 153	Kb [1]: 67 nM
COCC1=C(C(=O)OC)C(c2ccc(F)c(F)c2)N(C(=O)NCCCN2CC=C(c3cccc(NC(C)=O)c3)CC2)C(=O)N1 (stereo not drawn) [Example 2, METHYL 3-[(3-4-[3-(ACETYLAMINO)PHENYL]-1,2,3,6-TETRAHYDRO-1-PYR-IDINYLPROPYL)AMINO]CARBONYL-4-(3,4-DIFLUOROPHENYL)-6-(METHOXY-METHYL)-2-OXO-1,2,3,4-TETRAHYDRO-5-PYRIMIDINECARBOXYLATE]	18		Kb [1, 3]: 18 nM; Kb [1, 4]: 18 nM
COCC1=C(C(=O)OC)C(c2ccc(F)c(F)c2)N(C(=O)NCCCN2CCC(O)(c3ncccc3C)CC2)C(=O)N1 (single isomer, unassigned; (+)) [Example 16]		132 to 135	
COC(=O)C1=C(C)NC(=O)N(C(=O)NCCCN2CCN(c3ccccc3[N+](=O)[O-])C[C@@H]2C)C1c1ccc(F)c(F)c1 (single isomer, unassigned; (+)) [Example 34]	182		
Cc1cc(O)cc(O)c1/C=N/c1ccc(-c2cn3ccccc3n2)cc1 [Example 27]	279		Kb [1, 3]: 279 nM
COCC1=C(C(=O)OC)C(c2ccc(F)c(F)c2)N(C(=O)NCCCN2CCC(OC(C)=O)(c3ccccc3)CC2)C(=O)N1 (stereo not drawn) [Example 3, (1)-1,2,3,6-TETRAHYDRO-1-{N-[3-(4-O-ACETYL)-4-PHENYLPIPERIDIN-1-YL]PROPYL}CARBOXAMIDO-5-METHOXYCARBONYL-4-METHOXYMETHYL-6-(3,4-DIFLUOROPHENYL)-2-OXOPYRIMIDINE]			Kb [1]: 201 nM
O=C(CCCN1CCC(O)(c2ccc(Cl)cc2)CC1)c1ccc(Cl)cc1 [Example 29]			Kb [1]: 9 nM; Kb ([1]; read-out: hMCH1 Kb, Table 2, antagonist potency at the human MCH1 receptor): 9 nM; Kb [1, 5]: 9 nM
COC(=O)C1=C(C)NC(=O)N(C(=O)NCCCN2CCN(c3ccccc3[N+](=O)[O-])C[C@@H]2C)C1c1ccc(F)c(F)c1 (single isomer, unassigned; (+)) (as salt: HCl) [Example 34]		150 to 153	
COC(=O)C1=C(C)NC(=O)N(C(=O)NCCCN2CCC3(CC2)OCc2ccccc23)C1c1ccc(F)c(F)c1 (stereo not drawn) [Example 20, 4-(3,4-DIFLUORPHENYL)-6-METHYL-2-OXO-3-{[3-(4-SPIRO[ISOBENZO-FURAN-1(3H),4′-PIPERIDINE]PROPYL}-1,2,3,4-TETRAHYDROPYRIMIDINE-5-CARBOXYLIC ACID METHYL ESTER]			Kb [1]: 5 nM; Kb ([1]; read-out: Kb (nM) hMCH1, Table 1, cloned human MCH1 receptor, functional assay): 5 nM; Kb [1, 5]: 5 nM
(1)-1,2,3,6-TETRAHYDRO-1-{N-[4-(3,4-DIHYDRO-2-OXOSPIRONAPHTHALENE-1(2H))-PIPERIDINE-1-YL]PROPYL}CARBOXAMIDO-5-METHOXYCARBONYL-2-OXO-6-(3,4-BENZOFURAZAN)-4-METHYLPYRIMIDINE HYDROCHLORIDE [Example 23]	68		
O=[N+]([O-])c1ccccc1S(=O)(=O)n1nnc2ccccc21 [Example 31, 1H-1,2,3-BENZOTRIAZOL-1-YL (2-NITROPHENYL) SULFONE]	7		
COCC1=C(C(=O)OC)C(c2ccc(F)c(F)c2)N(C(=O)NCCCN2CCC(OC(C)=O)(c3ccccc3)CC2)C(=O)N1 (stereo not drawn) (as salt: hydrochloride) [Example 3, (1)-1,2,3,6-TETRAHYDRO-1-{N-[3-(4-O-ACETYL)-4-PHENYLPIPERIDIN-1-YL]PROPYL}CARBOXAMIDO-5-METHOXYCARBONYL-4-METHOXYMETHYL-6-(3,4-DIFLUOROPHENYL)-2-OXOPYRIMIDINE]		82 to 84	
